Where two headings read alike, the source gives them in different places.
Tests used:
[1] = Plasma pharmacokinetics, cycle 1 day 3; type: in vivo, human
patients [2] = details: olaparib with carboplatin; cited from earlier work
patients [3] = details: cited from earlier work
[4] = tested on: patients with advanced solid tumors; type: in vivo
[5] = tested on: patients with advanced solid tumors
BRCA mutated TNBC = details: addition of 120 mg BID to carboplatin plus paclitaxel; BROCADE 2; cited from earlier work
metastatic TNBC = details: cited from earlier work
early-stage TNBC = details: weekly paclitaxel alone, then AC; 95% PI, 9-43%; cited from earlier work
[6] = Expansion (n = 12), veliparib 150 mg bid continuous
[7] = Level 1 (n = 3), veliparib 50 mg bid
[8] = Level 2 (n = 3), veliparib 100 mg bid
[9] = Level 3 (n = 7), veliparib 150 mg bid
[10] = Level 4 (n = 5), veliparib 200 mg bid
[11] = cisplatin without veliparib, BRCA-like phenotype

N.N.O=C([O-])C1(C(=O)[O-])CCC1.[Pt+2] [Carboplatin, carboplatin]
Cmax and AUC0-∞, impact of veliparib dose ([1]; ultrafilterable carboplatin, 20 evaluable patients): not impacted

O=C(c1cc(Cc2n[nH]c(=O)c3ccccc23)ccc1F)N1CCN(C(=O)C2CC2)CC1 [olaparib]
tolerability with carboplatin (patients [2]): not tolerable

Cn1ncnc1[C@H]1c2n[nH]c(=O)c3cc(F)cc(c23)N[C@@H]1c1ccc(F)cc1 [Talazoparib, talazoparib]
single agent MTD (patients [3]; single agent): 1000 µg | patients with dose modification (patients [3]; talazoparib with carboplatin AUC5-6 and paclitaxel 80 mg/m^2 days 1, 8, 15 of 21-day cycles): 87-100%

C[C@]1(c2nc3c(C(N)=O)cccc3[nH]2)CCCN1 [veliparib]
thrombocytopenia grade 3/4 ([4]; 4 patients of 30, all dose levels and cycles): 13% | anemia grade 3/4 ([4]; 7 patients of 30, all dose levels and cycles): 23% | neutropenia grade 3/4 ([4]; 18 patients of 30, all dose levels and cycles): 60% | relationship between veliparib dose level and incidence or severity of adverse events ([4]; 50-200 mg bid): no clear relationship | ALT increased, any grade ([4]; All Patients (N = 30)): 4 (13%) | AST increased, any grade ([4]; All Patients (N = 30)): 3 (10%) | Anemia, any grade ([4]; All Patients (N = 30)): 20 (67%) | Anemia, grade ≥ 3 ([4]; All Patients (N = 30)): 7 (23%) | Anorexia, any grade ([4]; All Patients (N = 30)): 3 (10%) | Any Grade ≥ 3 AE ([4]; All Patients (N = 30)): 24 (80%) | Any grade AE ([4]; All Patients (N = 30)): 28 (93%) | Bruising, any grade ([4]; All Patients (N = 30)): 2 (7%) | Dehydration, grade ≥ 3 ([4]; All Patients (N = 30)): 1 (3%) | Diarrhea, any grade ([4]; All Patients (N = 30)): 5 (17%) | Dysgeusia, any grade ([4]; All Patients (N = 30)): 2 (7%) | Fatigue, any grade ([4]; All Patients (N = 30)): 18 (60%) | Fatigue, grade ≥ 3 ([4]; All Patients (N = 30)): 1 (3%) | Febrile neutropenia, grade ≥ 3 ([4]; All Patients (N = 30)): 1 (3%) | Headache, any grade ([4]; All Patients (N = 30)): 3 (10%) | Hot flashes, any grade ([4]; All Patients (N = 30)): 4 (13%) | Hyperglycemia, any grade ([4]; All Patients (N = 30)): 2 (7%) | Hypocalcemia, any grade ([4]; All Patients (N = 30)): 3 (10%) | Hyponatremia, any grade ([4]; All Patients (N = 30)): 2 (7%) | Hypophosphatemia, any grade ([4]; All Patients (N = 30)): 4 (13%) | Hypophosphatemia, grade ≥ 3 ([4]; All Patients (N = 30)): 1 (3%) | Lymphocyte count decreased, any grade ([4]; All Patients (N = 30)): 11 (37%) | Lymphocyte count decreased, grade ≥ 3 ([4]; All Patients (N = 30)): 7 (23%) | Myalgia, any grade ([4]; All Patients (N = 30)): 3 (10%) | Nausea, any grade ([4]; All Patients (N = 30)): 16 (53%) | Nausea, grade ≥ 3 ([4]; All Patients (N = 30)): 2 (7%) | Neutrophil count decreased, any grade ([4]; All Patients (N = 30)): 24 (80%) | Neutrophil count decreased, grade ≥ 3 ([4]; All Patients (N = 30)): 18 (60%) | Peripheral sensory neuropathy, any grade ([4]; All Patients (N = 30)): 3 (10%) | Platelet count decreased, any grade ([4]; All Patients (N = 30)): 22 (73%) | Platelet count decreased, grade ≥ 3 ([4]; All Patients (N = 30)): 4 (13%) | Rash maculo-papular, any grade ([4]; All Patients (N = 30)): 2 (7%) | Vomiting, any grade ([4]; All Patients (N = 30)): 4 (13%) | Vomiting, grade ≥ 3 ([4]; All Patients (N = 30)): 1 (3%) | White blood cell decreased, any grade ([4]; All Patients (N = 30)): 22 (73%) | White blood cell decreased, grade ≥ 3 ([4]; All Patients (N = 30)): 15 (50%) | ALT increased, any grade [4, 6]: 3 (25%) | AST increased, any grade [4, 6]: 2 (17%) | Anemia, any grade [4, 6]: 9 (75%) | Anemia, grade ≥ 3 [4, 6]: 3 (25%) | Anorexia, any grade [4, 6]: 2 (17%) | Any Grade ≥ 3 AE [4, 6]: 11 (92%) | Any grade AE [4, 6]: 12 (100%) | Bruising, any grade [4, 6]: 1 (8%) | Dehydration, grade ≥ 3 [4, 6]: 1 (8%) | Diarrhea, any grade [4, 6]: 3 (25%) | Fatigue, any grade [4, 6]: 8 (67%) | Febrile neutropenia, grade ≥ 3 [4, 6]: 1 (8%) | Headache, any grade [4, 6]: 2 (17%) | Hot flashes, any grade [4, 6]: 2 (17%) | Hypocalcemia, any grade [4, 6]: 1 (8%) | Hypophosphatemia, any grade [4, 6]: 3 (25%) | Hypophosphatemia, grade ≥ 3 [4, 6]: 1 (8%) | Lymphocyte count decreased, any grade [4, 6]: 7 (58%) | Lymphocyte count decreased, grade ≥ 3 [4, 6]: 3 (25%) | Myalgia, any grade [4, 6]: 2 (17%) | Nausea, any grade [4, 6]: 10 (83%) | Nausea, grade ≥ 3 [4, 6]: 1 (8%) | Neutrophil count decreased, any grade [4, 6]: 10 (83%) | Neutrophil count decreased, grade ≥ 3 [4, 6]: 6 (50%) | Peripheral sensory neuropathy, any grade [4, 6]: 2 (17%) | Platelet count decreased, any grade [4, 6]: 10 (83%) | Platelet count decreased, grade ≥ 3 [4, 6]: 2 (17%) | Vomiting, any grade [4, 6]: 3 (25%) | White blood cell decreased, any grade [4, 6]: 10 (83%) | White blood cell decreased, grade ≥ 3 [4, 6]: 7 (58%) | Any Grade ≥ 3 AE [4, 7]: 2 (67%) | Any grade AE [4, 7]: 2 (67%) | Neutrophil count decreased, any grade [4, 7]: 2 (67%) | Neutrophil count decreased, grade ≥ 3 [4, 7]: 2 (67%) | Platelet count decreased, any grade [4, 7]: 1 (33%) | Anemia, any grade [4, 8]: 3 (100%) | Any Grade ≥ 3 AE [4, 8]: 2 (67%) | Any grade AE [4, 8]: 3 (100%) | Bruising, any grade [4, 8]: 1 (33%) | Diarrhea, any grade [4, 8]: 2 (67%) | Dysgeusia, any grade [4, 8]: 1 (33%) | Fatigue, any grade [4, 8]: 3 (100%) | Hot flashes, any grade [4, 8]: 1 (33%) | Hyperglycemia, any grade [4, 8]: 1 (33%) | Hypocalcemia, any grade [4, 8]: 1 (33%) | Hyponatremia, any grade [4, 8]: 1 (33%) | Myalgia, any grade [4, 8]: 1 (33%) | Nausea, any grade [4, 8]: 3 (100%) | Neutrophil count decreased, any grade [4, 8]: 3 (100%) | Neutrophil count decreased, grade ≥ 3 [4, 8]: 2 (67%) | Platelet count decreased, any grade [4, 8]: 3 (100%) | Rash maculo-papular, any grade [4, 8]: 1 (33%) | White blood cell decreased, any grade [4, 8]: 3 (100%) | White blood cell decreased, grade ≥ 3 [4, 8]: 1 (33%) | ALT increased, any grade [4, 9]: 1 (14%) | AST increased, any grade [4, 9]: 1 (14%) | Anemia, any grade [4, 9]: 4 (57%) | Anemia, grade ≥ 3 [4, 9]: 2 (29%) | Anorexia, any grade [4, 9]: 1 (14%) | Any Grade ≥ 3 AE [4, 9]: 4 (57%) | Any grade AE [4, 9]: 6 (86%) | Dysgeusia, any grade [4, 9]: 1 (14%) | Fatigue, any grade [4, 9]: 3 (43%) | Headache, any grade [4, 9]: 1 (14%) | Hot flashes, any grade [4, 9]: 1 (14%) | Hyperglycemia, any grade [4, 9]: 1 (14%) | Hypocalcemia, any grade [4, 9]: 1 (14%) | Hyponatremia, any grade [4, 9]: 1 (14%) | Hypophosphatemia, any grade [4, 9]: 1 (14%) | Lymphocyte count decreased, any grade [4, 9]: 2 (29%) | Lymphocyte count decreased, grade ≥ 3 [4, 9]: 2 (29%) | Nausea, any grade [4, 9]: 2 (29%) | Neutrophil count decreased, any grade [4, 9]: 4 (57%) | Neutrophil count decreased, grade ≥ 3 [4, 9]: 3 (43%) | Peripheral sensory neuropathy, any grade [4, 9]: 1 (14%) | Platelet count decreased, any grade [4, 9]: 4 (57%) | Platelet count decreased, grade ≥ 3 [4, 9]: 2 (29%) | Rash maculo-papular, any grade [4, 9]: 1 (14%) | White blood cell decreased, any grade [4, 9]: 4 (57%) | White blood cell decreased, grade ≥ 3 [4, 9]: 2 (29%) | Anemia, any grade [4, 10]: 4 (80%) | Anemia, grade ≥ 3 [4, 10]: 2 (40%) | Any Grade ≥ 3 AE [4, 10]: 5 (100%) | Any grade AE [4, 10]: 5 (100%) | Fatigue, any grade [4, 10]: 4 (80%) | Fatigue, grade ≥ 3 [4, 10]: 1 (20%) | Lymphocyte count decreased, any grade [4, 10]: 2 (40%) | Lymphocyte count decreased, grade ≥ 3 [4, 10]: 2 (40%) | Nausea, any grade [4, 10]: 1 (20%) | Nausea, grade ≥ 3 [4, 10]: 1 (20%) | Neutrophil count decreased, any grade [4, 10]: 5 (100%) | Neutrophil count decreased, grade ≥ 3 [4, 10]: 5 (100%) | Platelet count decreased, any grade [4, 10]: 4 (80%) | Vomiting, any grade [4, 10]: 1 (20%) | Vomiting, grade ≥ 3 [4, 10]: 1 (20%) | White blood cell decreased, any grade [4, 10]: 5 (100%) | White blood cell decreased, grade ≥ 3 [4, 10]: 5 (100%) | came off study due to toxicity ([4]; of the total 30 patients enrolled): 10 patients | clearance ([1]; human, in vivo): 387 mL/min | half-life ([1]; human, in vivo): 4.8 h | AUC0-12 and Cmax versus dose ([1]; in vivo): increase linearly with dose | DLT ([5]; in vivo): without DLT | patients who experienced a DLT ([5]; in vivo): none | MTD ([5]; with weekly carboplatin and paclitaxel, enrollment to DL4 terminated): not formally reached | ORR (BRCA mutated TNBC): improved ORR | PFS benefit (BRCA mutated TNBC): did not translate into a PFS benefit | PFS at 1 year (metastatic TNBC; veliparib with cisplatin, BRCA-like phenotype): 20% | rate of grade 3/4 neutropenia (metastatic TNBC; veliparib with cisplatin): 46%

N.N.[Cl][Pt][Cl] [cisplatin]
PFS at 1 year (metastatic TNBC; [11]): 7% | median PFS (metastatic TNBC; [11]): 4.3 months | rate of grade 3/4 neutropenia (metastatic TNBC; in vivo): 19%

CC(=O)O[C@H]1C(=O)[C@@]2(C)[C@H]([C@H](OC(=O)c3ccccc3)[C@]3(O)C[C@H](OC(=O)[C@H](O)[C@@H](NC(=O)c4ccccc4)c4ccccc4)C(C)=C1C3(C)C)[C@]1(OC(C)=O)CO[C@@H]1C[C@@H]2O [Paclitaxel, paclitaxel]
exposure (Cmax and AUC0-∞) across veliparib doses ([1]; human, in vivo): not altered | complete pathological response (cPR) rate (early-stage TNBC): 26%
